This note sets out measurements from ChEMBL document CHEMBL3044624, “Cycloate, an inhibitor of fatty acid elongase, modulates the metabolism of very-long-side-chain alkylresorcinols in rye seedlings” (Pest Manag Sci, 2009).

Molecules are shown by their SMILES.

The test system of data set [1] is Secale cereale. Briefly: Change in alkylresorcinol homologue composition in dry shoots of green Secale cereale (rye) seedlings grown from compound-treated seeds at 29 +/-2 degC assessed as C17:1 content at 46 uM by GC/EI-MS analysis (reference value: 0.08 mg/kg dry weight). Type of data set: functional.
The test system of data set [2] is Secale cereale. As to the kind of experiment: Toxicity against etiolated Secale cereale (rye) seedlings assessed as dry biomass of seedling grown at 15 +/-2 degC at 46 uM measured at 5 days after compound-treated seed germination (reference value: 1.14 +/-0.01 g). As to conditions: in vivo, 120 h. Type of data set: organism-based.
The subject of data set [3] is Secale cereale. Briefly: Change in alkylresorcinol homologue composition in dry shoots of etiolated Secale cereale (rye) seedlings grown from compound-treated seeds at 29 +/-2 degC assessed as C21:0 content at 46 uM by GC/EI-MS analysis (reference value: 0.96 mg/kg dry weight). In kind it is functional.
Data set [4] deals with Secale cereale. Briefly: Change in alkylresorcinol homologue composition in dry shoots of etiolated Secale cereale (rye) seedlings grown from compound-treated seeds at 15 +/-2 degC assessed as C17:0 content at 46 uM by GC/EI-MS analysis (reference value: 3.25 mg/kg dry weight). In kind it is functional.
For data set [5], the system named is Secale cereale. As to the kind of experiment: Change in alkylresorcinol homologue composition in dry shoots of green Secale cereale (rye) seedlings grown from compound-treated seeds at 22 +/-2 degC assessed as C21:0 content at 46 uM by GC/EI-MS analysis (reference value: 0.23 mg/kg dry weight). In kind it is functional.
For data set [6], the system named is Secale cereale. As to the kind of experiment: Change in alkylresorcinol homologue composition in dry shoots of etiolated Secale cereale (rye) seedlings grown from compound-treated seeds at 29 +/-2 degC assessed as C23:1 content at 46 uM by GC/EI-MS analysis. In kind it is functional.
Data set [7] relates to Secale cereale. Briefly: Toxicity against green Secale cereale (rye) seedlings assessed as fresh biomass of seedling grown at 22 +/-2 degC at 46 uM measured at 5 days after compound-treated seed germination (reference value: 20.76 +/-0.81 g). Type of data set: organism-based. As to conditions: in vivo, 120 h.
In data set [8] the test system is Secale cereale. Briefly: Change in alkylresorcinol content in dry shoots of etiolated Secale cereale (rye) seedlings grown from compound-treated seeds at 15 +/-2 degC at 46 uM by thin layer chromatography (reference value: 8.13 +/-0.14 mg/kg dry weight). In kind it is functional.
In data set [9] the test system is Secale cereale. Briefly: Change in alkylresorcinol homologue composition in dry shoots of green Secale cereale (rye) seedlings grown from compound-treated seeds at 15 +/-2 degC assessed as C19:0 content at 46 uM by GC/EI-MS analysis (reference value: 0.99 mg/kg dry weight). In kind it is functional.
The test system of data set [10] is Secale cereale. Briefly: Change in alkylresorcinol homologue composition in dry shoots of etiolated Secale cereale (rye) seedlings grown from compound-treated seeds at 15 +/-2 degC assessed as C21:0 content at 46 uM by GC/EI-MS analysis (reference value: 0.78 mg/kg dry weight). In kind it is functional.
The test system of data set [11] is Secale cereale. As to the kind of experiment: Change in alkylresorcinol homologue composition in dry shoots of etiolated Secale cereale (rye) seedlings grown from compound-treated seeds at 22 +/-2 degC assessed as C25:0 content at 46 uM by GC/EI-MS analysis (reference value: 0.08 mg/kg dry weight). Type of data set: functional.
For data set [12], the system named is Secale cereale. Briefly: Change in alkylresorcinol homologue composition in dry shoots of etiolated Secale cereale (rye) seedlings grown from compound-treated seeds at 29 +/-2 degC assessed as C19:1 content at 46 uM by GC/EI-MS analysis (Rvb =0.09 mg/kg dry weight). Type of data set: functional.
In data set [13] the test system is Secale cereale. Briefly: Change in alkylresorcinol homologue composition in dry shoots of etiolated Secale cereale (rye) seedlings grown from compound-treated seeds at 29 +/-2 degC assessed as C17:0 content at 46 uM by GC/EI-MS analysis (reference value: 0.48 mg/kg dry weight). In kind it is functional.
The test system of data set [14] is Secale cereale. As to the kind of experiment: Change in alkylresorcinol homologue composition in dry shoots of etiolated Secale cereale (rye) seedlings grown from compound-treated seeds at 22 +/-2 degC assessed as C19:0 content at 46 uM by GC/EI-MS analysis (reference value: 1.83 mg/kg dry weight). Type of data set: functional.
The subject of data set [15] is Secale cereale. As to the kind of experiment: Change in alkylresorcinol homologue composition in dry shoots of green Secale cereale (rye) seedlings grown from compound-treated seeds at 29 +/-2 degC assessed as C25:0 content at 46 uM by GC/EI-MS analysis (reference value: 0.03 mg/kg dry weight). In kind it is functional.
The test system of data set [16] is Secale cereale. As to the kind of experiment: Toxicity against green Secale cereale (rye) seedlings assessed as dry biomass of seedling grown at 22 +/-2 degC at 46 uM measured at 5 days after compound-treated seed germination (reference value: 3.28 +/-0.02 g). Type of data set: organism-based. As to conditions: in vivo, 120 h.
The test system of data set [17] is Secale cereale. Briefly: Change in alkylresorcinol homologue composition in dry shoots of green Secale cereale (rye) seedlings grown from compound-treated seeds at 15 +/-2 degC assessed as C15:0 content at 46 uM by GC/EI-MS analysis (reference value: 0.24 mg/kg dry weight). Type of data set: functional.
In data set [18] the test system is Secale cereale. As to the kind of experiment: Change in alkylresorcinol homologue composition in dry shoots of etiolated Secale cereale (rye) seedlings grown from compound-treated seeds at 22 +/-2 degC assessed as C21:1 content at 46 uM by GC/EI-MS analysis (reference value: 0.12 mg/kg dry weight). Type of data set: functional.
For data set [19], the system named is Secale cereale. Briefly: Change in alkylresorcinol homologue composition in dry shoots of green Secale cereale (rye) seedlings grown from compound-treated seeds at 29 +/-2 degC assessed as C19:0 content at 46 uM by GC/EI-MS analysis (reference value: 0.48 mg/kg dry weight). Type of data set: functional.
Data set [20] has as its system Secale cereale. As to the kind of experiment: Change in alkylresorcinol content in dry shoots of green Secale cereale (rye) seedlings grown from compound-treated seeds at 29 +/-2 degC at 46 uM by thin layer chromatography (reference value: 1.94 +/-0.02 mg/kg dry weight). In kind it is functional.
In data set [21] the test system is Secale cereale. As to the kind of experiment: Change in alkylresorcinol homologue composition in dry shoots of etiolated Secale cereale (rye) seedlings grown from compound-treated seeds at 29 +/-2 degC assessed as C23:0 content at 46 uM by GC/EI-MS analysis (reference value: 0.18 mg/kg dry weight). Type of data set: functional.
Data set [22] deals with Secale cereale. As to the kind of experiment: Toxicity against green Secale cereale (rye) seedlings assessed as fresh biomass of seedling grown at 29 +/-2 degC at 46 uM measured at 5 days after compound-treated seed germination (reference value: 16.33 +/-0.24 g). Type of data set: organism-based. To be noted: in vivo, 120 h.

For `CCSC(=O)N(CC)C1CCCCC1` [CYCLOATE], the Activity with Secale cereale [1] amounted to 0.75 mg/kg; with Secale cereale [2] it was 0.92 g; in the data set on Secale cereale [3] it was 1.2 mg/kg; in the data set with Secale cereale [4], 5.74 mg/kg; in the data set with Secale cereale [5], 0.05 mg/kg; with Secale cereale [6], 0.07 mg/kg. The Activity is 10.63 g in the data set with Secale cereale [7]; 13.11 mg/kg with Secale cereale [8]; 1.45 mg/kg with Secale cereale [9]; 0.69 mg/kg in the data set on Secale cereale [10]; 0.06 mg/kg in the data set with Secale cereale [11]; 1.2 mg/kg with Secale cereale [12]. Moreover, the Activity with Secale cereale [13] is 5.52 mg/kg; with Secale cereale [14] it was 0.7 mg/kg; in the data set on Secale cereale [15], 0.2 mg/kg; in the data set on Secale cereale [16], 2.03 g; with Secale cereale [17], 0.75 mg/kg; with Secale cereale [18], 0.11 mg/kg. The Activity with Secale cereale [19] was found to be 3.88 mg/kg; in the data set on Secale cereale [20], 13.96 mg/kg; with Secale cereale [21], 0.34 mg/kg; in the data set with Secale cereale [22] it was 7.02 g.
